Test system: HBV rcDNA
Assay: HepDE19 assay with bDNA quantitation of HBV rcDNA
Assay type: cell-based, hepatitis B virus
Conditions: HepDE19 assay, inhibition of formation of relaxed circular DNA (rcDNA), bDNA quantitation; read-out: DE-19bDNA EC50
Summary of the method: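 Compounds, top concentration 25 μM in 8-point duplicate series, were applied to Tet-free HepDE19 cultures for 7 days. Branched-DNA quantitation of HBV rcDNA against untreated wells gave EC50 and EC90 by 4-parameter fit. Viability (CC50) came from ATP luminescence on parallel plates incubated 4 days.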

CC(c1c[nH]c(=O)c2c(F)c(F)ccc12)N(CCCO)C(=O)Nc1ccc(F)c(Cl)c1 (single isomer, unassigned) [Compound 335, 3-(3-Chloro-4-fluorophenyl)-1-(1-(7,8-difluoro-1-oxo-1,2-dihydroisoquinolin-4-yl)ethyl)-1-(3-hydroxypropyl)urea]
EC50: 6 nM

CC(c1cnc(C#N)c2ccccc12)N(C)C(=O)Nc1ccc(F)c(Cl)c1 (single isomer, unassigned) [Compound 336, 3-(3-Chloro-4-fluorophenyl)-1-(1-(1-cyanoisoquinolin-4-yl)ethyl)-1-methylurea]
EC50: 19000 nM

CC(c1cnc(C#N)c2ccccc12)N(C)C(=O)Nc1ccc(F)c(Cl)c1 (single isomer, unassigned) [Compound 337, 3-(3-Chloro-4-fluorophenyl)-1-(1-(1-cyanoisoquinolin-4-yl)ethyl)-1-methylurea]
EC50: 250 nM

CC(C)CN(C(=O)Nc1ccc(F)c(Cl)c1)C(C)c1c[nH]c(=O)c2c(F)c(F)ccc12 (single isomer, unassigned) [Compound 338, 3-(3-Chloro-4-fluorophenyl)-1-(1-(7,8-difluoro-1-oxo-1,2-dihydroisoquinolin-4-yl)ethyl)-1-isobutylurea]
EC50: 800 nM

CC(C)CN(C(=O)Nc1ccc(F)c(Cl)c1)C(C)c1c[nH]c(=O)c2c(F)c(F)ccc12 (single isomer, unassigned) [Compound 339, 3-(3-Chloro-4-fluorophenyl)-1-(1-(7,8-difluoro-1-oxo-1,2-dihydroisoquinolin-4-yl)ethyl)-1-isobutylurea]
EC50: 5 nM

CC(c1cn(C)c(=O)c2cc(F)c(F)cc12)N(C)C(=O)Nc1ccc(F)c(Cl)c1 (single isomer, unassigned) [Compound 340, 3-(3-Chloro-4-fluorophenyl)-1-(1-(6,7-difluoro-2-methyl-1-oxo-1,2-dihydroisoquinolin-4-yl)ethyl)-1-methylurea]
EC50: 4600 nM

CC(c1cn(C)c(=O)c2cc(F)c(F)cc12)N(C)C(=O)Nc1ccc(F)c(Cl)c1 (single isomer, unassigned) [Compound 341, 3-(3-Chloro-4-fluorophenyl)-1-(1-(6,7-difluoro-2-methyl-1-oxo-1,2-dihydroisoquinolin-4-yl)ethyl)-1-methylurea]
EC50: 11 nM

CC(C)CN(C(=O)Nc1ccc(F)c(Cl)c1)C(C)c1cn(C)c(=O)c2cc(F)c(F)cc12 (single isomer, unassigned) [Compound 342, 3-(3-Chloro-4-fluorophenyl)-1-(1-(6,7-difluoro-2-methyl-1-oxo-1,2-dihydroisoquinolin-4-yl)ethyl)-1-isobutylurea]
EC50: 620 nM

CC(C)CN(C(=O)Nc1ccc(F)c(Cl)c1)C(C)c1cn(C)c(=O)c2cc(F)c(F)cc12 (single isomer, unassigned) [Compound 343, 3-(3-Chloro-4-fluorophenyl)-1-(1-(6,7-difluoro-2-methyl-1-oxo-1,2-dihydroisoquinolin-4-yl)ethyl)-1-isobutylurea]
EC50: 6 nM

CC(C)CN(C(=O)Nc1ccc(F)c(Cl)c1)C(C)c1cnc(-n2cncn2)c2ccccc12 (single isomer, unassigned) [Compound 344, 1-(1-(1-(1H-1,2,4-triazol-1-yl)isoquinolin-4-yl)ethyl)-3-(3-chloro-4-fluorophenyl)-1-isobutylurea]
EC50: 2300 nM

CC(C)CN(C(=O)Nc1ccc(F)c(Cl)c1)C(C)c1cnc(-n2cncn2)c2ccccc12 (single isomer, unassigned) [Compound 345, 1-(1-(1-(1H-1,2,4-triazol-1-yl)isoquinolin-4-yl)ethyl)-3-(3-chloro-4-fluorophenyl)-1-isobutylurea]
EC50: 9.5 nM

CC(c1cnc(OCc2ncn(C)n2)c2cc(F)c(F)cc12)N(C)C(=O)Nc1ccc(F)c(Cl)c1 (single isomer, unassigned) [Compound 346, 3-(3-Chloro-4-fluorophenyl)-1-(1-(6,7-difluoro-1-((1-methyl-1H-1,2,4-triazol-3-yl)methoxy)isoquinolin-4-yl)ethyl)-1-methylurea]
EC50: 670 nM

CC(c1cnc(OCc2ncn(C)n2)c2cc(F)c(F)cc12)N(C)C(=O)Nc1ccc(F)c(Cl)c1 (single isomer, unassigned) [Compound 347, 3-(3-Chloro-4-fluorophenyl)-1-(1-(6,7-difluoro-1-((1-methyl-1H-1,2,4-triazol-3-yl)methoxy)isoquinolin-4-yl)ethyl)-1-methylurea]
EC50: 7 nM

CC(c1cnc(OCc2ncn(C)n2)c2cc(F)c(F)cc12)N(CCCO)C(=O)Nc1ccc(F)c(Cl)c1 (single isomer, unassigned) [Compound 348, 3-(3-chloro-4-fluorophenyl)-1-(1-(6,7-difluoro-1-((1-methyl-1H-1,2,4-triazol-3-yl)methoxy)isoquinolin-4-yl)ethyl)-1-(3-hydroxypropyl)urea]
EC50: 1100 nM

CC(c1cnc(OCc2ncn(C)n2)c2cc(F)c(F)cc12)N(CCCO)C(=O)Nc1ccc(F)c(Cl)c1 (single isomer, unassigned) [Compound 349, 3-(3-chloro-4-fluorophenyl)-1-(1-(6,7-difluoro-1-((1-methyl-1H-1,2,4-triazol-3-yl)methoxy)isoquinolin-4-yl)ethyl)-1-(3-hydroxypropyl)urea]
EC50: 5 nM

CC(c1cn(C)c(=O)c2cc(F)c(F)cc12)N(CCCO)C(=O)Nc1ccc(F)c(Cl)c1 (single isomer, unassigned) [Compound 350, 3-(3-Chloro-4-fluorophenyl)-1-(1-(6,7-difluoro-2-methyl-1-oxo-1,2-dihydroisoquinolin-4-yl)ethyl)-1-(3-hydroxypropyl)urea]
EC50: 3600 nM

CC(c1cn(C)c(=O)c2cc(F)c(F)cc12)N(CCCO)C(=O)Nc1ccc(F)c(Cl)c1 (single isomer, unassigned) [Compound 351, 3-(3-Chloro-4-fluorophenyl)-1-(1-(6,7-difluoro-2-methyl-1-oxo-1,2-dihydroisoquinolin-4-yl)ethyl)-1-(3-hydroxypropyl)urea]
EC50: 7 nM

Cc1ncc(C(C)N(C)C(=O)Nc2ccc(F)c(Cl)c2)c2ccccc12 (single isomer, unassigned) [Compound 352, 3-(3-Chloro-4-fluorophenyl)-1-methyl-1-(1-(1-methylisoquinolin-4-yl)ethyl)urea]
EC50: 9900 nM

Cc1ncc(C(C)N(C)C(=O)Nc2ccc(F)c(Cl)c2)c2ccccc12 (single isomer, unassigned) [Compound 353, 3-(3-Chloro-4-fluorophenyl)-1-methyl-1-(1-(1-methylisoquinolin-4-yl)ethyl)urea]
EC50: 190 nM

CC(c1c[nH]c(=O)c2c(F)cccc12)N(C)C(=O)Nc1ccc(F)c(Cl)c1 (single isomer, unassigned) [Compound 356, 3-(3-Chloro-4-fluorophenyl)-1-(1-(8-fluoro-1-oxo-1,2-dihydroisoquinolin-4-yl)ethyl)-1-methylurea]
EC50: 1900 nM

CC(c1c[nH]c(=O)c2c(F)cccc12)N(C)C(=O)Nc1ccc(F)c(Cl)c1 (single isomer, unassigned) [Compound 357, 3-(3-Chloro-4-fluorophenyl)-1-(1-(8-fluoro-1-oxo-1,2-dihydroisoquinolin-4-yl)ethyl)-1-methylurea]
EC50: 40 nM

CC(c1cn(C)c(=O)c2c(F)cccc12)N(C)C(=O)Nc1ccc(F)c(Cl)c1 (single isomer, unassigned) [Compound 358, 3-(3-Chloro-4-fluorophenyl)-1-(1-(8-fluoro-2-methyl-1-oxo-1,2-dihydroisoquinolin-4-yl)ethyl)-1-methylurea]
EC50: 5900 nM

CC(c1cn(C)c(=O)c2c(F)cccc12)N(C)C(=O)Nc1ccc(F)c(Cl)c1 (single isomer, unassigned) [Compound 359, 3-(3-Chloro-4-fluorophenyl)-1-(1-(8-fluoro-2-methyl-1-oxo-1,2-dihydroisoquinolin-4-yl)ethyl)-1-methylurea]
EC50: 23 nM

CC(C)CN(C(=O)Nc1ccc(F)c(Cl)c1)C(C)c1c[nH]c(=O)c2c(F)cccc12 (single isomer, unassigned) [Compound 360, 3-(3-Chloro-4-fluorophenyl)-1-(1-(8-fluoro-1-oxo-1,2-dihydroisoquinolin-4-yl)ethyl)-1-isobutylurea]
EC50: 180 nM

CC(C)CN(C(=O)Nc1ccc(F)c(Cl)c1)C(C)c1c[nH]c(=O)c2c(F)cccc12 (single isomer, unassigned) [Compound 361, 3-(3-Chloro-4-fluorophenyl)-1-(1-(8-fluoro-1-oxo-1,2-dihydroisoquinolin-4-yl)ethyl)-1-isobutylurea]
EC50: 12 nM

CC(c1cnc(OCc2nc[nH]n2)c2cc(F)c(F)cc12)N(C)C(=O)Nc1ccc(F)c(Cl)c1 (single isomer, unassigned) [Compound 362, 1-(1-(1-((1H-1,2,4-Triazol-3-yl)methoxy)-6,7-difluoroisoquinolin-4-yl)ethyl)-3-(3-chloro-4-fluorophenyl)-1-methylurea]
EC50: 890 nM

CC(c1cnc(OCc2nc[nH]n2)c2cc(F)c(F)cc12)N(C)C(=O)Nc1ccc(F)c(Cl)c1 (single isomer, unassigned) [Compound 363, 1-(1-(1-((1H-1,2,4-Triazol-3-yl)methoxy)-6,7-difluoroisoquinolin-4-yl)ethyl)-3-(3-chloro-4-fluorophenyl)-1-methylurea]
EC50: 14 nM

CC(c1cnc(OCc2nc[nH]n2)c2cc(F)c(F)cc12)N(CCCO)C(=O)Nc1ccc(F)c(Cl)c1 (single isomer, unassigned) [Compound 364, 1-(1-(1-((1H-1,2,4-Triazol-3-yl)methoxy)-6,7-difluoroisoquinolin-4-yl)ethyl)-3-(3-chloro-4-fluorophenyl)-1-(3-hydroxypropyl)urea]
EC50: 2000 nM

CC(c1cnc(OCc2nc[nH]n2)c2cc(F)c(F)cc12)N(CCCO)C(=O)Nc1ccc(F)c(Cl)c1 (single isomer, unassigned) [Compound 365, 1-(1-(1-((1H-1,2,4-Triazol-3-yl)methoxy)-6,7-difluoroisoquinolin-4-yl)ethyl)-3-(3-chloro-4-fluorophenyl)-1-(3-hydroxypropyl)urea]
EC50: 9 nM
